Measurements published in PubChem BioAssay (NCI).
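Cultured in 96-well plates, cells were exposed to test compound for 48 hours across five concentrations. The concentration for full growth arrest is given as TGI.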

Legend:
Test in all cases: DTP human tumour cell line panel, 48 h
[1] = system: MOLT-4 leukemia
[2] = system: NCI-H460 lung
[3] = system: 786-0 renal
[4] = system: SN12C renal
[5] = system: OVCAR-4 ovarian
[6] = system: RPMI-8226 leukemia
[7] = system: UACC-257 melanoma
[8] = system: OVCAR-5 ovarian
[9] = system: TK-10 renal
[10] = system: LOX IMVI melanoma
[11] = system: SK-MEL-2 melanoma
[12] = system: NCI-H522 lung
[13] = system: SR leukemia
[14] = system: MDA-MB-231 breast
[15] = system: SK-MEL-5 melanoma
[16] = system: SF-539 CNS
[17] = system: K-562 leukemia
[18] = system: SK-MEL-28 melanoma
[19] = system: T-47D breast
[20] = system: NCI-H226 lung
[21] = system: UO-31 renal
[22] = system: HCC-2998 colon
[23] = system: MDA-N
[24] = system: A498 renal
[25] = system: UACC-62 melanoma
[26] = system: HCT-116 colon
[27] = system: HCT-15 colon
[28] = system: DU-145 prostate
[29] = system: CAKI-1 renal
[30] = system: SNB-19 CNS
[31] = system: HS 578T breast
[32] = system: SNB-75 CNS
[33] = system: A549 NSCLC
[34] = system: RXF 393 renal
[35] = system: ACHN renal
[36] = system: HL-60(TB) leukemia
[37] = system: OVCAR-3 ovarian
[38] = system: PC-3 prostate
[39] = system: M14 melanoma
[40] = system: NCI-H23 lung
[41] = system: SW-620 colon
[42] = system: OVCAR-8 ovarian
[43] = system: IGROV1 ovarian
[44] = system: HOP-92 NSCLC
[45] = system: BT-549 breast
[46] = system: HT29 colon
[47] = system: EKVX NSCLC
[48] = system: SF-268 CNS
[49] = system: MALME-3M melanoma
[50] = system: HOP-62 NSCLC
[51] = system: KM12 colon
[52] = system: SF-295 CNS
[53] = system: MCF7 breast
[54] = system: COLO 205 colon
[55] = system: CCRF-CEM leukemia
[56] = system: SK-OV-3 ovarian
[57] = system: MDA-MB-435
[58] = system: U251 CNS

Measured: TGI

COC(=O)c1cc(C)ccc1/C=C1\Cc2cc(C)c(C)cc2C1=O
69.5 µM: [32]
not listed: [53] | [54] | [55] | [56] | [57] | [58]
> 100 µM: all other assays above

Cc1ccc(S(=O)(=O)Nn2c(-c3ccccc3)c(C#N)c(-c3ccc(Cl)cc3)c(C#N)c2=O)cc1
30.9 µM: [3]
98 µM: [38]
52.4 µM: [11]
89.5 µM: [14]
33 µM: [25]
31.7 µM: [36]
65.3 µM: [54]
79.7 µM: [44]
55.7 µM: [16]
61.2 µM: [45]
60.4 µM: [55]
51.1 µM: [24]
29.3 µM: [15]
37.3 µM: [26]
37.4 µM: [6]
78.5 µM: [18]
52.2 µM: [10]
52.8 µM: [1]
55.1 µM: [58]
41.4 µM: [39]
not listed: [12] | [13] | [19] | [20] | [21] | [28] | [31] | [32] | [37] | [40] | [42] | [43] | [46] | [47] | [48] | [49] | [51]
> 100 µM: all other assays above
